Laboratory results reported in ChEMBL document CHEMBL4715710, “Discovery, synthesis, and structure-activity relationships of 20S-dammar-24-en-2α,3β,12β,20-tetrol (GP) derivatives as a new class of AMPKα2β1γ1 activators” (Bioorg Med Chem, 2016).
The source made the active and inactive calls. The calls are words filed in the database; no cut-off is given here.

Experiments:
[1] = species on record: Homo sapiens; test: Activation of human recombinant AMPK alpha2/beta1/gamma1 using substrate-1 peptide as substrate incubated for 45 mins in presence of ATP by HTRF assay relative to negative control
[2] = Activation of human recombinant AMPK alpha2/beta1/gamma1 using substrate-1 peptide as substrate incubated for 45 mins in presence of ATP by HTRF assay
[3] = tested on: Hepatocyte; test: Cytotoxicity against C57/BL6 mouse primary hepatocytes at 5 to 40 uM measured after 24 hrs by sulforhodamine B assay; assay type: cell-based; details: dose 5-40 µM
[4] = tested on: L6; test: Effect on mitochondrial membrane potential in rat L6 cells at 5 to 40 uM measured after 1 hr by JC-1 staining based assay; assay type: functional, cell-based; details: dose 5-40 µM
[5] = tested on: HepG2; test: Activation of AMPK in human HepG2 cells assessed as induction of ACC phosphorylation at Ser79 residue measured after 1 hr by Western blot analysis; assay type: cell-based; details: filed as activator, dose 2.5-20 µM
[6] = Inhibition of gluconeogenesis in C57/BL6 mouse primary hepatocytes at 20 uM measured after 6 hrs relative to control; assay type: functional; details: C57/BL6, Hepatocyte
[7] = tested on: HepG2; test: Activation of AMPK in human HepG2 cells assessed as induction of AMPK phosphorylation of Thr-172 residue at alpha subunit measured after 1 hr by Western blot analysis; assay type: cell-based; details: filed as activator, dose 2.5-20 µM
[8] = tested on: Syrian golden hamster; test: Antidyslipidemic activity against HFHC diet-induced hyperlipidemia in Golden Syrian hamster model assessed as decrease in ratio of LDL-C to HDL-C at 100 mg/kg, po bid via gavage administered for 2 weeks and measured after 28 days by automated chemistry analyzer; assay type: functional, organism-based; details: Mesocricetus auratus
[9] = tested on: Syrian golden hamster; test: Antidyslipidemic activity against HFHC diet-induced hyperlipidemia in Golden Syrian hamster model assessed as decrease in triglycerides at 100 mg/kg, po bid via gavage administered for 2 weeks and measured after 28 days by automated chemistry analyzer; assay type: functional, organism-based; details: Mesocricetus auratus
[10] = tested on: Syrian golden hamster; test: Antidyslipidemic activity against HFHC diet-induced hyperlipidemia in Golden Syrian hamster model assessed as decrease in low density lipoprotein cholesterol at 100 mg/kg, po bid via gavage administered for 2 weeks and measured after 28 days by automated chemistry analyzer; assay type: functional, organism-based; details: Mesocricetus auratus
[11] = tested on: Syrian golden hamster; test: Antidyslipidemic activity against HFHC diet-induced hyperlipidemia in Golden Syrian hamster model assessed as decrease in total cholesterol level at 100 mg/kg, po bid via gavage administered for 2 weeks and measured after 28 days by automated chemistry analyzer; assay type: functional, organism-based; details: Mesocricetus auratus
[12] = tested on: HepG2; test: Activation of AMPK in human HepG2 cells assessed as induction of AMPK phosphorylation at alpha subunit at 20 uM measured after 1 hr by Western blot analysis; assay type: cell-based; details: filed as activator
[13] = tested on: Syrian golden hamster; test: Antidyslipidemic activity against HFHC diet-induced hyperlipidemia in Golden Syrian hamster model assessed as decrease in high density lipoprotein cholesterol at 100 mg/kg, po bid via gavage administered for 2 weeks and measured after 28 days by automated chemistry analyzer; assay type: functional, organism-based; details: Mesocricetus auratus
[14] = tested on: HepG2; test: Activation of AMPK in human HepG2 cells assessed as induction of ACC phosphorylation at Ser79 residue at 20 uM measured after 1 hr by Western blot analysis; assay type: cell-based; details: filed as activator
[15] = Inhibition of gluconeogenesis in C57/BL6 mouse primary hepatocytes at 10 to 20 uM measured after 6 hrs relative to control; assay type: functional, Hepatocyte; details: dose 10-20 µM
[16] = tested on: HepG2; test: Activation of AMPK in human HepG2 cells assessed as induction of ACC phosphorylation at Ser79 residue at 2.5 to 20 uM measured after 1 hr by Western blot analysis; assay type: cell-based; details: filed as activator, dose 2.5-20 µM
[17] = tested on: HepG2; test: Activation of AMPK in human HepG2 cells assessed as induction of AMPK phosphorylation at alpha subunit at 2.5 to 20 uM measured after 1 hr by Western blot analysis; assay type: cell-based; details: filed as activator, dose 2.5-20 µM

SMILES	fold change (FC) ([1]; filed as activator)	EC50 ([2]; read-out: EC50) [nM]	other results
CC1(C)[C@@H](O)[C@H](O)C[C@]2(C)[C@H]3C[C@@H](O)[C@@H]4[C@@H]([C@@](C)(O)CCCNCc5ccccc5)CC[C@@]4(C)[C@]3(C)CC[C@@H]12	3.4	5100	
COc1ccc(CNCCC[C@](C)(O)[C@H]2CC[C@]3(C)[C@@H]2[C@H](O)C[C@@H]2[C@@]4(C)C[C@@H](O)[C@H](O)C(C)(C)[C@@H]4CC[C@]23C)cc1OC	2.8	1100	
CC1(C)[C@@H](O)[C@H](O)C[C@]2(C)[C@H]3C[C@@H](O)[C@@H]4[C@@H]([C@@](C)(O)CCCNCCCc5ccccc5)CC[C@@]4(C)[C@]3(C)CC[C@@H]12	2.7	800	Activity [3]: Non-Toxic; Activity [4]: Active; Activity [5]: Dose-dependent effect; inhibition at 20 µM [6]: 80%; Activity [7]: Dose-dependent effect
CC(C)(C)NCCC[C@](C)(O)[C@H]1CC[C@]2(C)[C@@H]1[C@H](O)C[C@@H]1[C@@]3(C)C[C@@H](O)[C@H](O)C(C)(C)[C@@H]3CC[C@]12C	2.1	4900	
CC1(C)[C@@H](O)[C@H](O)C[C@]2(C)[C@H]3C[C@@H](O)[C@@H]4[C@@H]([C@@](C)(O)CCCNCCc5ccccc5)CC[C@@]4(C)[C@]3(C)CC[C@@H]12	2	1200	
CNCCC[C@](C)(O)[C@H]1CC[C@]2(C)[C@@H]1[C@H](O)C[C@@H]1[C@@]3(C)C[C@@H](O)[C@H](O)C(C)(C)[C@@H]3CC[C@]12C	2.6	1900	
CC(C)(O)[C@H]1CC[C@](C)([C@H]2CC[C@]3(C)[C@@H]2[C@H](O)C[C@@H]2[C@@]4(C)C[C@@H](O)[C@H](O)C(C)(C)[C@@H]4CC[C@]23C)O1	3.9	5500	
CC(C)=CCC[C@](C)(O)[C@H]1CC[C@]2(C)[C@@H]1[C@H](O)C[C@@H]1[C@@]3(C)C[C@@H](O)[C@H](O)C(C)(C)[C@@H]3CC[C@]12C	2.4	5100	Activity [8]: Active; Activity [9]: inactive; Activity [10]: Active; Activity [11]: Active; inhibition at 20 µM [6]: 25%; Activity [12]: Active; Activity [13]: inactive; Activity [14]: Active
CC1(C)[C@@H](O)[C@H](O)C[C@]2(C)[C@H]3C[C@@H](O)[C@@H]4[C@@H]([C@@](C)(O)CCCNCc5ccc(F)cc5)CC[C@@]4(C)[C@]3(C)CC[C@@H]12	3.2	300	Activity [3]: Non-Toxic; Activity [4]: Active; Activity [5]: Dose-dependent effect; inhibition at 20 µM [6]: 80%; Activity [7]: Dose-dependent effect
CC(C)NCCC[C@](C)(O)[C@H]1CC[C@]2(C)[C@@H]1[C@H](O)C[C@@H]1[C@@]3(C)C[C@@H](O)[C@H](O)C(C)(C)[C@@H]3CC[C@]12C	2	1200	
CC(C)(O)[C@@H]1CC[C@](C)([C@H]2CC[C@]3(C)[C@@H]2[C@H](O)C[C@@H]2[C@@]4(C)C[C@@H](O)[C@H](O)C(C)(C)[C@@H]4CC[C@]23C)O1	3.6	8800	
COc1ccc(CNCCC[C@](C)(O)[C@H]2CC[C@]3(C)[C@@H]2[C@H](O)C[C@@H]2[C@@]4(C)C[C@@H](O)[C@H](O)C(C)(C)[C@@H]4CC[C@]23C)cc1	2.7	1000	
Nc1ncnc2c1ncn2[C@@H]1O[C@H](COP(=O)(O)O)[C@@H](O)[C@H]1O [ADENOSINE PHOSPHATE]	3.2	1600	
CC1(C)[C@@H](O)[C@H](O)C[C@]2(C)[C@H]3C[C@@H](O)[C@@H]4[C@@H]([C@@](C)(O)CCCNCc5ccccn5)CC[C@@]4(C)[C@]3(C)CC[C@@H]12	3	800	Activity [4]: Active; inhibition (INH) [15]: 20%; Activity [16]: Active; Activity [17]: Active
CC1(C)[C@@H](O)[C@H](O)C[C@]2(C)[C@H]3C[C@@H](O)[C@@H]4[C@@H]([C@@](C)(O)CCCNCc5ccncc5)CC[C@@]4(C)[C@]3(C)CC[C@@H]12	4.1	1200	
CC(C)CCC[C@](C)(O)[C@H]1CC[C@]2(C)[C@@H]1[C@H](O)C[C@@H]1[C@@]3(C)C[C@@H](O)[C@H](O)C(C)(C)[C@@H]3CC[C@]12C			fold change (FC) [1]: < 1.5; EC50 [2]: Not Active
C[C@H](NCCC[C@](C)(O)[C@H]1CC[C@]2(C)[C@@H]1[C@H](O)C[C@@H]1[C@@]3(C)C[C@@H](O)[C@H](O)C(C)(C)[C@@H]3CC[C@]12C)c1ccccc1	2.8	1400	
COc1ccc(NCCC[C@](C)(O)[C@H]2CC[C@]3(C)[C@@H]2[C@H](O)C[C@@H]2[C@@]4(C)C[C@@H](O)[C@H](O)C(C)(C)[C@@H]4CC[C@]23C)cc1	2.9	3800	
N#Cc1c(O)c2c(-c3ccc(-c4ccccc4O)cc3)csc2[nH]c1=O	4.2	9.6	
CCCNCCC[C@](C)(O)[C@H]1CC[C@]2(C)[C@@H]1[C@H](O)C[C@@H]1[C@@]3(C)C[C@@H](O)[C@H](O)C(C)(C)[C@@H]3CC[C@]12C	2.9	1900	
CCNCCC[C@](C)(O)[C@H]1CC[C@]2(C)[C@@H]1[C@H](O)C[C@@H]1[C@@]3(C)C[C@@H](O)[C@H](O)C(C)(C)[C@@H]3CC[C@]12C	2.3	1800	
CC1(C)[C@@H](O)[C@H](O)C[C@]2(C)[C@H]3C[C@@H](O)[C@@H]4[C@@H]([C@@](C)(O)CCCNCc5cccnc5)CC[C@@]4(C)[C@]3(C)CC[C@@H]12	2.8	1000	Activity [4]: Active; inhibition (INH) [15]: 20%; Activity [16]: Active; Activity [17]: Active
